For the first assay, the system named is Aβ40. The assay is described as follows: Screen of NIH clinical collection compounds for reduction of Aβ40 in Tg2576 mES cell derived neurons (Aβ40 ELISA). Type of assay: cell-based, mouse. Set-up: Percent Inhibition: concentration or dose not given beside the values. The conditions noted are these: Aβ40 in conditioned media vs DMSO control; neurons treated on day 8 after plating for 24 hours. How it is done: In certain embodiments, the inhibitor of the present invention is identified by an assay directed to detecting inhibitors of Aβ40 production. For example, but not by way of limitation, such assays can include assays such as those prepared as follows. First, mouse ES cells isolated from Tg2576 mice are subjected to directed differentiation as previously described. After dissociation of embryoid bodies, neurons are plated in poly-D-lysine and laminin coated 96 well black plates at a density of 1.5×10^5 cells/cm2 which is 45,000 cells/well. Media is changed to N2 containing media after 4 hours and again the next day after plating. Two days after plating, media is changed to B27 containing media which is replaced every 2 days after that. On day 8 after plating the mouse ES derived neurons are treated with the compound of interest. […] In certain embodiments the compounds are incubated with the cells for 24 hours in 150 μl B27 media. In certain embodiments each plate of ES derived neurons is treated with NCC compounds, DMSO (negative control), and the positive controls for Aβ reduction BACE inhibitor IV (Calbiochem) and Compound E. After 24 hours, 100 μl conditioned media can then be removed and frozen at −80° C. until further analysis for Aβ40 content. The remaining cells in 50 μl media can be subjected to cell viability assay CellQuanti Blue (BioAssay Systems). In certain embodiments, conditioned media can be subjected to Aβ40 quantification, e.g., by using Aβ40 ELISA (Invitrogen).
Mouse ES cells isolated from. Tg2576 mice were subjected to directed differentiation as previously described. After dissociation of embryoid bodies, neurons were plated in poly-D-lysine and laminin coated 96 well black plates at a density of 1.5×10^5 cells/cm2 which is 45,000 cells/well. Media was changed to N2 containing media after 4 hours and again the next day after plating. Two days after plating, media was changed to B27 containing media which was replaced every 2 days after that. […] Each plate of ES derived neurons was treated with NCC compounds, DMSO (negative control), and the positive controls for Aβ reduction BACE inhibitor IV (Calbiochem) and Compound E. After 24 hours, 100 μl conditioned media was removed and frozen at −80° C. until further analysis for Aβ40 content. The remaining cells in 50 μl media were subjected to cell viability assay CellQuanti Blue (BioAssay Systems). Conditioned media was subjected to Aβ40 quantification using Aβ40 ELISA (Invitrogen). Compounds which lowered Aβ40 levels in the conditioned media were identified as hits if they reduced Aβ40 by 4 standard deviations of the negative control (DMSO) but maintained cell viability. Cell viability was defined by CellQuanti Blue fluorescent signal maintained within two standard deviations of fluorescent signal from the control treated (DMSO) cells. High potency hits were defined by reducing Aβ40 40% or more (signal 60% of DMSO control).
Hits were defined as lowering Aβ by 4 standard deviations below the negative control (DMSO) treated condition but maintaining cell viability within 2 standard deviations of control.
Regarding `CNS(=O)(=O)Cc1ccc2[nH]cc(CCN(C)C)c2c1` [sumatriptan succinate], the “Percent Inhibition” value is recorded as 8%.

With `CN1C(=O)CN=C(c2ccccc2)c2cc([N+](=O)[O-])ccc21` [nimetanzepam], the “Percent Inhibition” value stood at 13%.

In the case of `C[N+]1(C)CCN(c2ccccc2)CC1.[I-]` [1,1,-dimethyl-4-phenylpiperazinium iodide], the “Percent Inhibition” value is 9%.

`CC(=O)O[C@]1(C(C)=O)CC[C@H]2[C@@H]3C=C(C)C4=CC(=O)CC[C@]4(C)[C@H]3CC[C@@]21C` [megestrol acetate]: the “Percent Inhibition” value is 20%.

Regarding `O=C(NCCN1CCOCC1)c1ccc(Cl)cc1` [4-chloro-n-(2-morpholin-4-yl-ethyl)-benzamide], the “Percent Inhibition” value is on record as 21%.

For the molecule `Cc1ncc([N+](=O)[O-])n1CC(C)O` (stereo not drawn) [1-(2-methyl-5-nitro-imidazol-1-yl)-propan-2-ol], the “Percent Inhibition” value stood at 12%.

As to `CC(=O)OCC(=O)NCCCOc1cccc(CN2CCCCC2)c1` [roxatidine acetate], the “Percent Inhibition” value was 12%.

With `CN(C)CCc1c[nH]c2ccc(Cn3cncn3)cc12` [rizatriptan benzoate], the “Percent Inhibition” value is on record as 10%.

For `COc1cc(OC)c(C(=O)CCCN2CCCC2)c(OC)c1` [buflomedil], the “Percent Inhibition” value came to 13%.

As to gabexate mesylate, the “Percent Inhibition” value is reported as 20%.

Regarding `O=C1N(c2ccccc2)c2ccccc2C1(Cc1ccncc1)Cc1ccncc1` [2h-indol-2-one,1,3-dihydro-1-phenyl-3,3-bis(4-pyridinylmethyl)], the “Percent Inhibition” value turned out to be 22%.

Consider `O=[N+]([O-])c1cccc2cn[nH]c12` [7-nitroindazole], for which the “Percent Inhibition” value amounted to 17%.

With medroxyprogesterone, the “Percent Inhibition” value was found to be 20%.

The next assay has as its system tau. In words: Assay for tau: Western blot of tau isoforms in wild type mES cell-derived pyramidal neurons. Type of assay: cell-based, mouse. The settings on record: 1 uM; treated at 14 DIV for 48 hr; Western blot (CP13, PHF). Details: key: *: asterisk denotes hit compounds. How it is done: In certain embodiments, the inhibitor of the present invention is identified by an assay directed to detecting inhibitors of tau phosporylation. For example, but not by way of limitation, such assays can include assays such as those prepared as follows. First, wild type, mouse embryoinc stem cells are differentiated into pyramidal neurons using the protocol described in Example 1. ES cell-derived neurons are treated at 14 DIV for 48 hr with either vehicle (D, DMSO) or various histone demethylase inhibitors (inhibitor compounds 1-10). Tau isoforms are detected by Western blot analysis of the cell lysates using the indicated antibodies, See FIG. 11. CP13 recognizes tau phosphorylation at ser202/205. PHF recognizes tau phosphorylation at ser396/404. TUJ1 (Neuron-specific class III beta-tubulin) is used as a loading control.
Wild type, mouse embryoinc stem cells were differentiated into pyramidal neurons using the protocol described in Example 1. ES cell-derived neurons were treated at 14 DIV for 48 hr with either vehicle (D, DMSO) or various histone demethylase inhibitors (inhibitor compounds 1-10). Tau isoforms were detected by Western blot analysis of the cell lysates using the indicated antibodies, See FIG. 11. CP13 recognizes tau phosphorylation at ser202/205. PHF recognizes tau phosphorylation at ser396/404. TUJ1 (Neuron-specific class III beta-tubulin) is used as a loading control.
List of inhibitor compounds tested for their ability to inhibit levels of total tau, disease-associated phosphorylated or presence of modified forms of tau include (asterisk denotes hit compounds): *1. pargyline (LSD1 inhibitor)—1000 uM; *2. deprenyl (LSD1 inhibitor)—1000 uM; *3. propargyl (LSD1 inhibitor)—100 uM; 4. phenelzine (LSD1 inhibitor)—100 uM; 5. tranylcyprmine (LSD1 inhibitor)—200 uM; *6. S2101 (LSD1 Inhibitor II, EMD Biosciences catalog #489477)—LSD1 inhibitor—1 uM; 7. N-oxyalylglycine (NOG) (JMJD2s inhibitor)—1000 uM; *8. pyradine (JMJ2A and E inhibitor)—1000 uM; *9. disulfiram (JMJ2A inhibitor)—20 uM; *10. ebselen (JMJ2A inhibitor)—20 uM.
Background: In western blotting, separated proteins are transferred to a membrane and probed.
Consider `NC1CC1c1cc(F)cc(F)c1OCc1ccccc1` (stereo not drawn) [S2101], for which the “ability to inhibit levels of total tau, disease-associated phosphorylated or presence of modified forms of tau” value (from here on “ability to inhibit levels of total tau”) is recorded as “*”.

The assay is the same for the next values; noted with them: 20 uM; treated at 14 DIV for 48 hr; Western blot (CP13, PHF).
In the case of `O=c1c2ccccc2[se]n1-c1ccccc1` [ebselen], the “ability to inhibit levels of total tau” value is “*”.

As to `CCN(CC)C(=S)SSC(=S)N(CC)CC` [disulfiram], the “ability to inhibit levels of total tau” value is given as “*”.

The assay is the same for the next values; noted with them: 1000 uM; treated at 14 DIV for 48 hr; Western blot (CP13, PHF).
Turning to `C#CCN(C)Cc1ccccc1` [pargyline], the “ability to inhibit levels of total tau” value is listed as “*”.

As to `C#CCN(C)[C@H](C)Cc1ccccc1` [deprenyl], the “ability to inhibit levels of total tau” value is on record as “*”.

(Values after patent US9696306B2, “Methods of reducing levels of tau” (The Trustees of Columbia University in the City of New York, priority 2011, dated 2017).)
